Assay results published in patent publication US8487117B2, “Atropisomers of (hydroxyalkyl) pyrrole derivatives” (Exelixis, Inc., priority 2008, dated 2013).

Assays:
[1] = target: T1, human mineralocorticoid receptor (hMR), GAL4-hMR receptor (Homo sapiens, UniProt P08235); experiment: GAL4-hMR-LBD luciferase reporter assay in HEK293 cells with 1 nM aldosterone (mineralocorticoid receptor antagonistic action); assay type: cell-based; details: for IC50: concentration which shows Imax/2, HEK293, GAL4-hMR-LBD, luciferase, with 1 nM aldosterone, read-out: ICmax50; for Imax: maximum value, DMSO control = 0%, 1 nM aldosterone control = 100%, HEK293 luciferase reporter
T1 construct: expressed in transfected cells; host or cells: HEK293
T1 sequence (P08235 726-964 limits assumed): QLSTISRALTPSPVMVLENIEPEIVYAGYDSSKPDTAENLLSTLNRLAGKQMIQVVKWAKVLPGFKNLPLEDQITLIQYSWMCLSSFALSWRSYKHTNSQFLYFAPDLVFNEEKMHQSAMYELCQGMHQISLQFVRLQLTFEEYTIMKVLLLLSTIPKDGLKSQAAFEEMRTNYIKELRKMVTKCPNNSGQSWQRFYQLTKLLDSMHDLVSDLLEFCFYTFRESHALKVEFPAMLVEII
Protocol: A plasmid pM-hMR-LBD expressing GAL4-hMR receptor, which has a ligand binding domain (LBD, corresponds to approximately 308 amino acids at the carboxy terminus) of human mineralocorticoid receptor (hMR, NM_000901) bonded to a DNA binding domain of yeast transcription factor GAL4 (corresponding to 147 amino acids at the amino terminus), was prepared. Reporter assay was conducted by using a reporter plasmid (such as STRATAGENE CLONING SYSTEMS, pFR-Luc) including a luciferase gene, having a sequence (UAS sequence) which binds to the DNA binding domain of GAL4.
The plasmid pM-hMR-LBD and the reporter plasmid as obtained above were gene transferred into renal cell line HEK293 of human fetus by lipofection. On the next day, cells were collected by trypsin treatment, and were dispensed with DMEM culture medium containing 5% of FBS treated by activated charcoal, to a white 96-well plate (Costar) with the amount of 95 microliter per well.
The Test Compounds were used by dissolving them in dimethyl sulfoxide at a predetermined concentration, and the test compounds suitably diluted with culture media were added to the cells on the white 96-well plate so that the final concentration becomes 0.1%. When adding the Test Compounds, they were accompanied with 1 nM aldosterone. The well group of Control group 1 was added with dimethyl sulfoxide, and the well group of Control group 2 was added with 1 nM aldosterone. After addition, cultivation was carried out overnight.
On the next day, the culture media was removed, and then luciferase substrate (Wako Pure Chemical Industries, Ltd.) was prepared in accordance with the attached document and were added to each well by 50 microliters. Stirring was conducted for approximately 30 minutes, and the amount of luminescence was measured for each well by using Analyst (Molecular Devices), to obtain luciferase activity. A graph which plots relative luciferase activity values, when the luciferase activity value of Control group 1 was taken as 0% and the luciferase activity value of Control group 2 was taken as 100%, for each of the amount of the test compound addition group was made.

[2] = Plasma concentration after intragastric administration to cynomolgus monkey (LC-MS/MS); assay type: in vivo; details: male cynomolgus monkey, fasted, 3 mg/kg intragastric in 0.5% MC; for AUC: Area under the plasma concentration versus time curve: blood up to 48 h, noncompartment model; for Cmax: po, plasma, read-out: Cmax: Maximum concentration
Protocol: Cynomolgus monkey (male) was used, and was fasted from the day before the administration of the Test Compound.
Administration samples were prepared by adding 0.5% MC (methyl cellulose) solution to the Test Compound, so that the dose becomes 3 mg/2 mL/kg. Each of the administration samples was administered intragastrically to the cynomolgus monkey by using a tube. After the samples were administered, approximately 5 mL of 0.5% MC was administered. For each of the administration samples, a group of two cynomolgus monkeys was administered.
With respect to collection of blood, it was conducted by collecting approximately 0.5 mL of blood from femoral vein using a glass syringe treated with heparin, before administration, and 30 minutes, 1, 2, 4, 6, 8, 24 and 48 hours after administration. Blood was centrifuged (1,700×g, 15 min, 4° C.) to obtain plasma. Plasma was stored in a freezer (−20° C.) until pretreatment.
Preparation of standard solution and internal standard (“IS”) solution: Each of the Test Compounds was dissolved in DMSO (dimethyl sulfoxide) to prepare a solution of 10 mM each. Each of the compound solution was diluted with acetonitrile, and thus standard solution was prepared. Further, niflumic acid (Wako Pure Chemical Industries, Ltd.) was dissolved in DMSO at the concentration of 2 mM, followed by dilution with acetonitrile to prepare an IS solution of 2 μM.
Pretreatment of plasma samples: 20 μL of plasma sample was collected, and then 25 μL of purified water, 100 μL of acetonitrile, and 100 μL of methanol was added. For the preparation of a calibration curve, 25 μL of purified water, 20 μL of each of the standard solutions (acetonitrile solution), 80 μL of acetonitrile, and 100 μL of methanol were added to 20 μL of blank plasma. 40 μL of the acetonitrile solution of IS was added to all of the samples, and then the samples were stirred, filtered by suction using Captiva filter plate (Varian, Inc.), and then the filtrate was used as the sample for LC-MS/MS analysis.
Quantitative Determination of Test Compound: Concentration in plasma was analyzed by LC-MS/MS method for each Test Compound.
[HPLC Analysis Conditions]
• HPLC: WATERS 2795 (Waters Corporation); • Column: CAPCELL PAK C8, 2.0 mm I.D.×50 mm, 5 μm (Shiseido Co., Ltd.) • Mobile Phase: A=5 mM ammonium acetate aqueous solution, B=acetonitrile [MS/MS Analysis Conditions] • MS: Quattro micro API (Waters Corporation) • Ionization Method: Electrospray Ionization (“ESI”) • Ionization Mode: Positive • Detection Mode: MRM • Analysis: Pharmacokinetic parameter was calculated from concentration of each of the drugs in plasma, by using WinNonlin Professional (Ver. 4.0.1, Pharsight Corporation). Here, noncompartment model was used as the model for parameter calculation. (Results)

Row | SMILES | IC50 [1] [nM] | Imax [1] [%] | AUC: Area under the plasma concentration versus time curve [2] [ng·h/mL] | Cmax [2] [ng/mL]
1 | Cc1c(C(=O)Nc2ccc(S(C)(=O)=O)cc2)cn([C@H](C)[C@H](C)O)c1-c1ccc(Cl)cc1C(F)(F)F (atropisomer, axis not shown) [Example 3, 5-[4-Chloro-2-(trifluoromethyl)phenyl]-1-[(1R,2S)-2-hydroxy-1-methylpropyl]-4-methyl-N-[4-(methylsulfonyl)phenyl]-1H-pyrrole-3-carboxamide] | 6.7 | 95 | – | –
2 | Cc1c(C(=O)Nc2ccc(S(C)(=O)=O)cc2)cn(CCO)c1-c1ccccc1C(F)(F)F (racemic) [Comparative compound, 1-(2-hydroxyethyl)-4-methyl-N-[4-(methylsulfonyl)phenyl]-5-[2-(trifluoromethyl)phenyl]-1H-pyrrole-3-carboxamide, reference compound] | 5.3 | 105 | 4090 | 230
3 | Cc1c(C(=O)Nc2ccc(S(C)(=O)=O)cc2)cn([C@H](C)[C@H](C)O)c1-c1ccc(F)cc1C(F)(F)F (single isomer, unassigned) [Example 2-isomer A] | 3.8 | 103 | 30320 | 1280
4 | Cc1c(C(=O)Nc2ccc(S(C)(=O)=O)cc2)cn([C@H](C)[C@H](C)O)c1-c1ccc(F)cc1C(F)(F)F (single isomer, unassigned) [Example 2-isomer B] | > 1000 | – | – | –
5 | Cc1c(C(=O)Nc2ccc(S(C)(=O)=O)cc2)cn([C@H](C)[C@H](C)O)c1-c1ccc(F)cc1Cl (single isomer, unassigned) [Example 4-isomer A] | 11 | 103 | – | –
6 | Cc1c(C(=O)Nc2ccc(S(C)(=O)=O)cc2)cn([C@H](C)[C@H](C)O)c1-c1ccc(F)cc1Cl (single isomer, unassigned) [Example 4-isomer B] | > 1000 | – | – | –
7 | Cc1c(C(=O)Nc2ccc(S(C)(=O)=O)cc2)cn([C@H](C)[C@H](C)O)c1-c1ccc(F)cc1Cl [Example 4, 5-(2-Chloro-4-fluorophenyl)-1-[(1R,2S)-2-hydroxy-1-methylpropyl]-4-methyl-N-[4-(methylsulfonyl)phenyl]-1H-pyrrole-3-carboxamide] | 10 | 106 | – | –

More lines, now with the values ahead:

Row | IC50 [1] [nM] | Imax [1] [%] | AUC: Area under the plasma concentration versus time curve [2] [ng·h/mL] | Cmax [2] [ng/mL] | SMILES
8 | 2.9 | 117 | – | – | Cc1c(C(=O)Nc2ccc(S(C)(=O)=O)cc2)cn([C@H](C)[C@H](C)O)c1-c1ccccc1C(F)(F)F (single isomer, unassigned) [Example 1-isomer A]
9 | > 1000 | – | – | – | Cc1c(C(=O)Nc2ccc(S(C)(=O)=O)cc2)cn([C@H](C)[C@H](C)O)c1-c1ccccc1C(F)(F)F (single isomer, unassigned) [Example 1-isomer B]
10 | 4.6 | 108 | 42490 | 1440 | Cc1c(C(=O)Nc2ccc(S(C)(=O)=O)cc2)cn([C@H](C)[C@H](C)O)c1-c1ccc(Cl)cc1C(F)(F)F (single isomer, unassigned) [Example 3-isomer A]
11 | > 1000 | – | – | – | Cc1c(C(=O)Nc2ccc(S(C)(=O)=O)cc2)cn([C@H](C)[C@H](C)O)c1-c1ccc(Cl)cc1C(F)(F)F (single isomer, unassigned) [Example 3-isomer B]
12 | 6.6 | 115 | – | – | Cc1c(C(=O)Nc2ccc(S(C)(=O)=O)cc2)cn([C@H](C)[C@H](C)O)c1-c1ccccc1C(F)(F)F [Example 1, 1-[(1R,2S)-2-Hydroxy-1-methylpropyl]-4-methyl-N-[4-(methylsulfonyl)phenyl]-5-[2-(trifluoromethyl)phenyl]-1H-pyrrole-3-carboxamide]
13 | 6.2 | 88 | – | – | Cc1c(C(=O)Nc2ccc(S(C)(=O)=O)cc2)cn([C@H](C)[C@H](C)O)c1-c1ccc(F)cc1C(F)(F)F [Example 2, 5-[4-Fluoro-2-(trifluoromethyl)phenyl]-1-[(1R,2S)-2-hydroxy-1-methylpropyl]-4-methyl-N-[4-(methylsulfonyl)phenyl]-1H-pyrrole-3-carboxamide]
